Reference: patent US9242933B2 (AbbVie Deutschland GmbH & Co. KG, priority 2007, dated 2016)
pEC50: −log10 of the molar value.

target: T1, human mGlu2 receptor (Homo sapiens, UniProt Q14416); test: FLIPR intracellular Ca2+ assay, potentiation of glutamate response in HEK293 clone expressing mGlu2 receptor, rGLAST and Galpha16; format: cell-based; conditions: 1 μM glutamate added ten minutes after test compound, HEK293 cells with human mGlu2, rGLAST, Galpha16, read-out: EC50 values of potentiation effect to glutamate
T1 construct: expressed in transfected cells; host or cells: HEK293
T1 sequence (Q14416 19-872): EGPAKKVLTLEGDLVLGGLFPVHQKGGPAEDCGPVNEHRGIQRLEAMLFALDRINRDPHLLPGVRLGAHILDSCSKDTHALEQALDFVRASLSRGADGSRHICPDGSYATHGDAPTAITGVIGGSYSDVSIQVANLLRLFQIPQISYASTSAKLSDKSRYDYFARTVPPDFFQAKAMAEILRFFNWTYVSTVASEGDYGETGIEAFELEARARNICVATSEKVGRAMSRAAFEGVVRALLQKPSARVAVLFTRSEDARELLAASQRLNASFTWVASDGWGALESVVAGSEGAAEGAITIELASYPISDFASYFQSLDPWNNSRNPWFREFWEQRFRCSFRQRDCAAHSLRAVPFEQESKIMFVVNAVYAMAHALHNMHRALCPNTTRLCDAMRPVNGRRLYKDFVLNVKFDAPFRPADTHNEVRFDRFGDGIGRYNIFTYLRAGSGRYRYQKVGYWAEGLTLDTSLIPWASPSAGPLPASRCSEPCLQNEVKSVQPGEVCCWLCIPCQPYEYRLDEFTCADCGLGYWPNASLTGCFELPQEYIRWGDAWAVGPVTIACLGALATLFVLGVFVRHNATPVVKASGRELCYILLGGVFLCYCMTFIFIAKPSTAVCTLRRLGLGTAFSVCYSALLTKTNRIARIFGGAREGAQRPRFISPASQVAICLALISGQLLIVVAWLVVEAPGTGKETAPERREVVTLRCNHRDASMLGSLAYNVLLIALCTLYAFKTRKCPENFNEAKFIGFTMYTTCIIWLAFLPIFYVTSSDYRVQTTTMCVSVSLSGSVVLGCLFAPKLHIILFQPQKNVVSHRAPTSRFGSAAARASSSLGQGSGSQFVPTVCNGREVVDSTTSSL
In short: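 HEK293 cells stably expressing human mGlu2, rat GLAST and Gα16 were loaded with 2 µM Fluo-4 AM and intracellular Ca2+ read by FLIPR. Compound added alone (agonism), then with submaximal glutamate (e.g. 1 µM; potentiation). Background-subtracted peaks normalized to 100 µM glutamate response; EC50 from four-parameter fit.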

pEC50 | Structure (SMILES)
> 6.00 | CCCN1Cc2cc(NCc3c[nH]nc3-c3ccc(F)cc3)ccc2C1=O [Example 579, 5-{[3-(4-Fluorophenyl)-1H-pyrazol-4-ylmethyl]-amino}-2-propyl-2,3-dihydro-isoindol-1-one]
> 6.00 | CCCN1Cc2cc(NCc3c[nH]nc3-c3cccc(F)c3)ccc2C1=O [Example 580, 5-{[3-(3-Fluorophenyl)-1H-pyrazol-4-ylmethyl]-amino}-2-propyl-2,3-dihydro-isoindol-1-one]
> 6.00 | CCCN1Cc2cc(NCc3c[nH]nc3-c3ccccc3)ccc2C1=O [Example 581, 5-[(3-Phenyl-1H-pyrazol-4-ylmethyl)-amino]-2-propyl-2,3-dihydro-isoindol-1-one]
5.00 to 6.00 | CCCN1Cc2cc(NCc3n[nH]cc3-c3cccc(C(F)(F)F)c3)ccc2C1=O [Example 582]
> 6.00 | O=C1c2ccc(OCc3c[nH]nc3-c3ccc(C(F)(F)F)cc3)cc2CN1Cc1ccc(OC(F)(F)F)cc1 [Example 585, 2-(4-Trifluoromethoxy-benzyl)-5-[3-(4-trifluoromethyl-phenyl)-1H-pyrazol-4-ylmethoxy]-2,3-dihydro-isoindol-1-one]
> 6.00 | O=C1c2ccc(OCc3c[nH]nc3-c3ccc(C(F)(F)F)cc3)cc2CN1CC1CCCCC1 [Example 586, 2-Cyclohexylmethyl-5-[3-(4-trifluoromethyl-phenyl)-1H-pyrazol-4-ylmethoxy]-2,3-dihydro-isoindol-1-one]
> 6.00 | CC(C)CN1Cc2cc(OCc3c[nH]nc3-c3ccc(C(F)(F)F)cc3)ccc2C1=O [Example 587, 2-Isobutyl-5-[3-(4-trifluoromethyl-phenyl)-1H-pyrazol-4-ylmethoxy]-2,3-dihydro-isoindol-1-one]
> 6.00 | O=C1c2ccc(OCc3c[nH]nc3-c3ccc(C(F)(F)F)cc3)cc2CN1C1CCCC1 [Example 588, 2-Cyclopentyl-5-[3-(4-trifluoromethyl-phenyl)-1H-pyrazol-4-ylmethoxy]-2,3-dihydro-isoindol-1-one]
5.00 to 6.00 | O=C1c2ccc(OCc3c[nH]nc3-c3ccc(C(F)(F)F)cc3)cc2CN1c1ccccc1 [Example 589, 2-Phenyl-5-[3-(4-trifluoromethyl-phenyl)-1H-pyrazol-4-ylmethoxy]-2,3-dihydro-isoindol-1-one]
> 6.00 | CCCN1Cc2cc(NCc3c(C)noc3-c3ccccc3)ccc2C1=O [Example 590, 5-[(3-Methyl-5-phenyl-isoxazol-4-ylmethyl)-amino]-2-propyl-2,3-dihydro-isoindol-1-one]

The next lines start with the compound.

Structure (SMILES) | pEC50
O=C1c2ccc(OCc3c[nH]nc3-c3cccc(C(F)(F)F)c3)cc2CN1CC(F)(F)F [Example 569, 2-(2,2,2-Trifluoro-ethyl)-5-[3-(3-trifluoromethyl-phenyl)-1H-pyrazol-4-ylmethoxy]-2,3-dihydro-isoindol-1-one] | > 6.00
O=C1c2ccc(OCc3c[nH]nc3-c3ccc(F)cc3)cc2CN1CC(F)(F)F [Example 570, 5-[3-(4-Fluorophenyl)-1H-pyrazol-4-ylmethoxy]-2-(2,2,2-trifluoro-ethyl)-2,3-dihydro-isoindol-1-one] | > 6.00
O=C1c2ccc(OCc3c[nH]nc3-c3cccc(F)c3)cc2CN1CC(F)(F)F [Example 571, 5-[3-(3-Fluorophenyl)-1H-pyrazol-4-ylmethoxy]-2-(2,2,2-trifluoro-ethyl)-2,3-dihydro-isoindol-1-one] | > 6.00
CN1Cc2cc(OCc3c[nH]nc3-c3ccc(C(F)(F)F)cc3)ccc2C1=O [Example 573, 2-Methyl-5-[3-(4-trifluoromethyl-phenyl)-1H-pyrazol-4-ylmethoxy]-2,3-dihydro-isoindol-1-one] | > 6.00
CCCN1CCc2cc(OCc3c[nH]nc3-c3ccc(C(F)(F)F)cc3)ccc2C1=O [Example 574, 2-Propyl-6-[3-(4-trifluoromethyl-phenyl)-1H-pyrazol-4-ylmethoxy]-3,4-dihydro-2H-isoquinolin-1-one] | > 6.00
CCCN1Cc2cc(NCc3c[nH]nc3-c3ccc(Cl)cc3)ccc2C1=O [Example 576, 5-{[3-(4-Chloro-phenyl)-1H-pyrazol-4-ylmethyl]-amino}-2-propyl-2,3-dihydro-isoindol-1-one] | > 6.00
CCCN1Cc2cc(NCc3c[nH]nc3-c3cccc(Cl)c3)ccc2C1=O [Example 577, 5-{[3-(3-Chloro-phenyl)-1H-pyrazol-4-ylmethyl]-amino}-2-propyl-2,3-dihydro-isoindol-1-one] | > 6.00
CCCN1Cc2cc(NCc3c[nH]nc3-c3cccc(C(F)(F)F)c3)ccc2C1=O [Example 578] | > 6.00

target: mGlu3 (Homo sapiens, UniProt Q14832); test: not given; conditions: agonist; cited from earlier work
Sequence (Q14832 23-879): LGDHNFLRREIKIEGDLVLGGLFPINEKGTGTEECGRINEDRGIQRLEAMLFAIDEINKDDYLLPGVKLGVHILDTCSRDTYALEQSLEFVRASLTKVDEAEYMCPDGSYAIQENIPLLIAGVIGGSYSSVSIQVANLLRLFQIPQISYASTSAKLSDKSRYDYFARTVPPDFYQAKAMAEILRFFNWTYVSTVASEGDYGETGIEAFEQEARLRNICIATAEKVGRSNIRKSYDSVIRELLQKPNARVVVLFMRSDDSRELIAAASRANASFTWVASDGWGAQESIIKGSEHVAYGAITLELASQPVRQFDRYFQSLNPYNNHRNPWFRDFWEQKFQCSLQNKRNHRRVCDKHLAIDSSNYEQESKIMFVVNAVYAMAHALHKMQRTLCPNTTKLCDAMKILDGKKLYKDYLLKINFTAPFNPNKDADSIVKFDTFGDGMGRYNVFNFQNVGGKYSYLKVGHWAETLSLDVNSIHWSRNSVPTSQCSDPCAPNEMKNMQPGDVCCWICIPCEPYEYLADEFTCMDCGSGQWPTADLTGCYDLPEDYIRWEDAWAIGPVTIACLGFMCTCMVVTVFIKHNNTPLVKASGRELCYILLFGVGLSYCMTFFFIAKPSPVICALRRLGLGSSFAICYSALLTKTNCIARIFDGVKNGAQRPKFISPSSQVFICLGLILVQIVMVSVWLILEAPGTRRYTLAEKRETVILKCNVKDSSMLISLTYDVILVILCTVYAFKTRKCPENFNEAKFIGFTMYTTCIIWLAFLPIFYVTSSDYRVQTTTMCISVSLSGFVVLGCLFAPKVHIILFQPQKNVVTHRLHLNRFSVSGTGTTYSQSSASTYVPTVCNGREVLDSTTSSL

Structure (SMILES) | pEC50
N[C@@]1(C(=O)O)CC[C@H]2[C@H](C(=O)O)[C@H]21 [LY354740] | 7.70
N[C@@]1(C(=O)O)CO[C@H]2[C@H](C(=O)O)[C@H]21 [LY379268] | 8.30
